Earlier results, collected in patent US20040170677A1, “Method of drug loading in liposomes by gradient” (priority 2002, published 2004).

Details: patients receiving doses greater than 550 mg per square meter of body area

COc1cccc2c1C(=O)c1c(O)c3c(c(O)c1C2=O)C[C@@](O)(C(=O)CO)C[C@@H]3O[C@H]1C[C@H](N)[C@H](O)[C@H](C)O1 [doxorubicin, Doxorubicin]
irreversible cardiomyopathy leading to congestive heart failure, share of patients: 1-10%
